Assays:
[1] = target: T1, RNA-dependent DNA polymerase activity of HIV reverse transcriptase (Human immunodeficiency virus type 1 group M subtype B, UniProt P04585); assay: RNA-dependent DNA polymerase activity assay of HIV reverse transcriptase; assay type: biochemical, HIV-1; conditions: 10 μM inhibitor concentration; activity with analog / without analog x 100
T1 construct: made in house
Protocol: In separate, representative assays, mappicine analogs were tested for their ability to inhibit the RNA-dependent DNA polymerase activity of HIV reverse transcriptase and for their ability to inhibit the RNase H activity of HIV reverse transcriptase. The assay for RNA-dependent DNA polymerase activity is discussed in Borkow, G. et al., “Inhibition of the Ribonuclease H and DNA Polymerase Activities of HIV-1 Reverse Transcriptase by N-(4-tert-Butylbenzoyl)-2-hydroxy-1-naphthaldehyde Hydrazone,” Biochemistry 1997, 36, 3179-3185, a copy of which is attached hereto, and the disclosure of which is incorporated herein by reference. Assays were carried out in the absence and in the presence of mappicine analogs (10 μM final concentration). The results are reported as % residual activity, which is the RNA-dependent DNA polymerase activity of the enzyme in the presence of the mappicine analog divided by the RNA-dependent activity of the enzyme in the absence of the mappicine analog, multiplied by 100.

[2] = target: RNase H activity of HIV reverse transcriptase (Human immunodeficiency virus type 1 group M subtype B, UniProt P04585); assay: Fluorescence (FRET)-based RNase H activity assay of HIV reverse transcriptase; assay type: biochemical, HIV-1; set-up: final concentration of 2.5 nM of the p51/p66 RT heterodimer in the assay; made in house; conditions: 10 μM inhibitor concentration; activity with analog / without analog x 100
Protocol: Recently, a fluorescence-based assay to perform preliminary screens in search of HIV RNase H inhibitors has been developed. The assay, which is carried out in 96-well microplates and is adaptable to robotics, is the first high-throughput screen for RNase H and is described in further detail in the Experimental section. HIV-1 RT and human RNase H were cloned, and thus comparative analysis of inhibitor action could be conducted simultaneously.
The assay for RNase H activity of HIV reverse transcriptase was the fluorescence-based assay described in detail in the Experimental section and discussed in U.S. Provisional Patent Application Serial No. 60/318,359. Assays were carried out in the absence and in the presence of mappicine analogs (10 μM final concentration). The results are reported as % residual activity, which is the RNase H activity of the enzyme in the presence of the mappicine analog divided by the RNase H activity of the enzyme in the absence of the mappicine analog, multiplied by 100. Alternatively, the results are reported as % inhibition, which is calculated as the ratio of the RNase H activity of the enzyme in the presence of the mappicine analog to the enzyme activity in the absence of the mappicine analog, multiplied by 100, and then subtracting this number from 100.
Assay for Ribonuclease H Activity Based on Fluorescence Resonance Energy Transfer (FRET)
Preparation of the Fluorophore-RNA/Quencher-DNA Hybrid Duplex Substrate.
The RNA/DNA hybrid duplex substrate for use in the assay comprises an RNA oligonucleotide of sequence 5′-GAU CUG AGC CUG GGA GCU-3′, modified at the 3′-end with Aminolink-2 and derivatized with fluorescein isothiocyanate, to provide a modified RNA oligonucleotide of the sequence 5′-GAU CUG AGC CUG GGA GCU-fluorescein-3′, annealed to a complementary DNA oligonucleotide of the sequence 5′-AGC TCC CAG GCT CAG ATC-3′ modified at the 5′-end with Aminolink-2 and derivatized with the FRET acceptor DABCYL succinimidyl ester, to provide a modified DNA oligonucleotide of the sequence 5′-DABCYL-AGC TCC CAG GCT CAG ATC-3′.
To prepare the 3′-fluorescein-RNA/5′-DABCYL-DNA hybrid duplex substrate, a known amount of 3′-fluorescein-RNA was dissolved in 20 mM Tris buffer (pH 8.0, 37° C.) to provide a final concentration of 5 μM. Two equivalents of the 5′-DABCYL-DNA oligonucleotide were added, and the mixture was heated to 90° C. for 5 min and cooled slowly to room temperature to allow duplex formation. The positioning of the fluorescein donor at the 3′-end of the RNA oligonucleotide and the DABCYL acceptor at the 5′-end of the DNA oligonucleotide provides a very close proximity of the donor and acceptor that results in a very intense quenching of the fluorescein emission in the intact RNA/DNA hybrid duplex substrate due to the spectral overlap of the fluorescence emission of fluorescein with the absorption spectrum of DABCYL. In addition, DABCYL is non-fluorescent, and thus cannot contribute any light emission. Both of these factors result in a very low background and provide a high signal-to-noise in the assay measurements. The ratio of the donor fluorescence in the absence and in the presence of its quencher is approximately fifteen-fold.
Microplate Assay Protocol for the Measurement of RNase H Activity Using the RNA/DNA Hybrid Duplex Substrate.
Reaction assay mixtures contained 5 μl of a stock solution of 2.5 μM RNA/DNA hybrid duplex substrate added to 85 μl of assay buffer (50 mM Tris, pH 8.0, 37° C., containing 60 mM KCl and 2.5 mM MgCl2), prepared in the wells of a 96-well fluorescence microtiter plate, and warmed to 37° C. using the temperature control of the SpectraMax Gemini XS microplate spectrofluorometer (Molecular Devices). Reactions were started by the addition of 5 μl of a solution of recombinant HIV-1 reverse transcriptase (usually providing a final concentration of 2.5 nM of the p51/p66 RT heterodimer in the assay), and mixing using the automatic mixing function of the microplate spectrofluorometer. […]

CCC(O)c1cc2n(c(=O)c1C)Cc1c-2nc2ccccc2c1-c1ccccc1 (racemic) [3Aα]
Residual activity (%) Polymerase [1]: 90%
Residual activity (%) RNase H [2]: 97%

Cc1c(C(O)C(C)(C)C)cc2n(c1=O)Cc1c-2nc2ccccc2c1-c1ccccc1 (racemic) [3Aβ]
Residual activity (%) Polymerase [1]: 54%
Residual activity (%) RNase H [2]: 95%

Cc1c(C(O)CCC2CCCCC2)cc2n(c1=O)Cc1c-2nc2ccccc2c1-c1ccccc1 (racemic) [3Aδ]
Residual activity (%) Polymerase [1]: 32%
Residual activity (%) RNase H [2]: 104%

CCC(O)c1cc2n(c(=O)c1C)Cc1c-2nc2ccc(F)cc2c1-c1ccccc1 (racemic) [3Bα]
Residual activity (%) Polymerase [1]: 54%
Residual activity (%) RNase H [2]: 83%

Cc1c(C(O)C(C)(C)C)cc2n(c1=O)Cc1c-2nc2ccc(F)cc2c1-c1ccccc1 (racemic) [3Bβ]
Residual activity (%) Polymerase [1]: 78%
Residual activity (%) RNase H [2]: 75%

Cc1c(C(O)CCC2CCCCC2)cc2n(c1=O)Cc1c-2nc2ccc(F)cc2c1-c1ccccc1 (racemic) [3Bδ]
Residual activity (%) Polymerase [1]: 81%
Residual activity (%) RNase H [2]: 99%

Cc1c(C(O)Cc2ccccc2)cc2n(c1=O)Cc1c-2nc2ccc(F)cc2c1-c1ccccc1 (racemic) [3Bε]
Residual activity (%) Polymerase [1]: 28%
Residual activity (%) RNase H [2]: 91%

CCC(O)c1cc2n(c(=O)c1C)Cc1c-2nc2ccc(C)cc2c1-c1ccccc1 (racemic) [3Cα]
Residual activity (%) Polymerase [1]: 64%
Residual activity (%) RNase H [2]: 96%

Cc1ccc2nc3c(c(-c4ccccc4)c2c1)Cn1c-3cc(C(O)C(C)(C)C)c(C)c1=O (racemic) [3Cβ]
Residual activity (%) Polymerase [1]: 70%
Residual activity (%) RNase H [2]: 84%

Cc1ccc2nc3c(c(-c4ccccc4)c2c1)Cn1c-3cc(C(O)Cc2ccccc2)c(C)c1=O (racemic) [3Cε]
Residual activity (%) Polymerase [1]: 76%
Residual activity (%) RNase H [2]: 101%

CCC(O)c1cc2n(c(=O)c1C)Cc1c-2nc2ccc(OC)cc2c1-c1ccccc1 (racemic) [3Dα]
Residual activity (%) Polymerase [1]: 69%
Residual activity (%) RNase H [2]: 78%

COc1ccc2nc3c(c(-c4ccccc4)c2c1)Cn1c-3cc(C(O)CCC2CCCCC2)c(C)c1=O (racemic) [3Dδ]
Residual activity (%) Polymerase [1]: 60%
Residual activity (%) RNase H [2]: 67%

COc1ccc2nc3c(c(-c4ccccc4)c2c1)Cn1c-3cc(C(O)Cc2ccccc2)c(C)c1=O (racemic) [3Dε]
Residual activity (%) Polymerase [1]: 61%
Residual activity (%) RNase H [2]: 79%

CCC(O)c1cc2n(c(=O)c1C)Cc1c-2nc2ccccc2c1[Si](C)(C)C(C)(C)C (racemic) [4Aα]
Residual activity (%) Polymerase [1]: 67%
Residual activity (%) RNase H [2]: 104%

Cc1c(C(O)C(C)(C)C)cc2n(c1=O)Cc1c-2nc2ccccc2c1[Si](C)(C)C(C)(C)C (racemic) [4Aβ]
Residual activity (%) Polymerase [1]: 71%
Residual activity (%) RNase H [2]: 101%

Cc1c(C(O)CCC2CCCCC2)cc2n(c1=O)Cc1c-2nc2ccccc2c1[Si](C)(C)C(C)(C)C (racemic) [4Aδ]
Residual activity (%) Polymerase [1]: 45%
Residual activity (%) RNase H [2]: 95%

Cc1c(C(O)Cc2ccccc2)cc2n(c1=O)Cc1c-2nc2ccccc2c1[Si](C)(C)C(C)(C)C (racemic) [4Aε]
Residual activity (%) Polymerase [1]: 83%
Residual activity (%) RNase H [2]: 93%

CCC(O)c1cc2n(c(=O)c1C)Cc1c-2nc2ccc(F)cc2c1[Si](C)(C)C(C)(C)C (racemic) [4Bα]
Residual activity (%) Polymerase [1]: 98%
Residual activity (%) RNase H [2]: 108%

Cc1c(C(O)C(C)(C)C)cc2n(c1=O)Cc1c-2nc2ccc(F)cc2c1[Si](C)(C)C(C)(C)C (racemic) [4Bβ]
Residual activity (%) Polymerase [1]: 49%
Residual activity (%) RNase H [2]: 113%

Cc1ccc2nc3c(c([Si](C)(C)C(C)(C)C)c2c1)Cn1c-3cc(C(O)CCC2CCCCC2)c(C)c1=O (racemic) [4Cδ]
Residual activity (%) Polymerase [1]: 61%
Residual activity (%) RNase H [2]: 109%

COc1ccc2nc3c(c([Si](C)(C)C(C)(C)C)c2c1)Cn1c-3cc(C(O)C(C)(C)C)c(C)c1=O (racemic) [4Dβ]
Residual activity (%) Polymerase [1]: 47%
Residual activity (%) RNase H [2]: 91%

COc1ccc2nc3c(c([Si](C)(C)C(C)(C)C)c2c1)Cn1c-3cc(C(O)CCC2CCCCC2)c(C)c1=O (racemic) [4Dδ]
Residual activity (%) Polymerase [1]: 51%
Residual activity (%) RNase H [2]: 87%

COc1ccc2nc3c(c([Si](C)(C)C(C)(C)C)c2c1)Cn1c-3cc(C(O)Cc2ccccc2)c(C)c1=O (racemic) [4Dε]
Residual activity (%) Polymerase [1]: 49%
Residual activity (%) RNase H [2]: 76%

Cc1c(C(O)C(C)(C)C)cc2n(c1=O)Cc1c-2nc2ccccc2c1[Si](C)(C)C (racemic) [5Aβ]
Residual activity (%) Polymerase [1]: 103%
Residual activity (%) RNase H [2]: 77%

Cc1c(C(O)CCC2CCCCC2)cc2n(c1=O)Cc1c-2nc2ccccc2c1[Si](C)(C)C (racemic) [5Aδ]
Residual activity (%) Polymerase [1]: 83%
Residual activity (%) RNase H [2]: 78%

Cc1c(C(O)Cc2ccccc2)cc2n(c1=O)Cc1c-2nc2ccccc2c1[Si](C)(C)C (racemic) [5Aε]
Residual activity (%) Polymerase [1]: 54%
Residual activity (%) RNase H [2]: 93%

Cc1c(C(O)C(C)(C)C)cc2n(c1=O)Cc1c-2nc2ccc(F)cc2c1[Si](C)(C)C (racemic) [5Bβ]
Residual activity (%) Polymerase [1]: 74%
Residual activity (%) RNase H [2]: 102%

Cc1c(C(O)CCC2CCCCC2)cc2n(c1=O)Cc1c-2nc2ccc(F)cc2c1[Si](C)(C)C (racemic) [5Bδ]
Residual activity (%) Polymerase [1]: 78%
Residual activity (%) RNase H [2]: 103%

Cc1ccc2nc3c(c([Si](C)(C)C)c2c1)Cn1c-3cc(C(O)C(C)(C)C)c(C)c1=O (racemic) [5Cβ]
Residual activity (%) Polymerase [1]: 72%
Residual activity (%) RNase H [2]: 80%

Cc1ccc2nc3c(c([Si](C)(C)C)c2c1)Cn1c-3cc(C(O)CCC2CCCCC2)c(C)c1=O (racemic) [5Cδ]
Residual activity (%) Polymerase [1]: 41%
Residual activity (%) RNase H [2]: 103%

From patent US20040058948A1, “Mappicine analogs, methods of inhibiting retroviral reverse transcriptase and methods of treating retroviruses” (priority 2002, published 2004)
